Reference: patent US9540691B2, “Assays and methods for selecting a treatment regimen for a subject with depression” (THE GENERAL HOSPITAL CORPORATION, priority 2011, dated 2017)
Read-outs that look alike come from different tables or passages of the source.

Tested on: MDD patients carrying the indicated conditions
Conditions: with SSRI
Protocol: Folate levels are classified as either low (<=2.5 ng/ml) or normal; and homocysteine levels as either normal or elevated (>=[…]). The presence or absence of at least one […] allele for the MTHFR gene are entered as a dichotomous variable (present or absent). […] Using folate as an example predicator, the presence or absence of a low serum-folate level along with treatment assignment can be entered in a 2×2, factorial ANOVA, using depression improvement scores (baseline minus endpoint HAM-D-17 scores) as the dependant variable. […] Similar analyses (i.e. separate 2×2 ANOVA's) can be performed substituting the presence of low folate levels for the presence of other predictors as described herein. Similarly, the effect of other predictors can be indicated by the interaction term representing the potential modulating influence of those variables.
Particularly, specific genetic and biomarkers that were assessed include the following: • (a) BMI calculation of at least about 30 kg/m^2; • (b) an expression ratio of SAM/SAH smaller than 2.8 (e.g., 2.71) as measured in a plasma sample; • (c) a level of 4-HNE no less than 3.28 μg/mL (as measured in a plasma sample); • (d) presence of rare variants CT or TT at position 677 of SEQ ID NO: 1 corresponding to a portion of a genomic nucleic acid sequence of methylenetetrahydrofolate reductase (MTHFR) (abbreviated as “MTHFR 677” below); • (e) presence of rare variants AG or GG at position 2756 of SEQ ID NO: 2 corresponding to a portion of genomic nucleic acid sequence of methionine synthase (MTR) (abbreviated as “MTR 2756” below); and • (f) presence of rare variants AG or GG at position 66 of SEQ ID NO: 3 corresponding to a portion of genomic nucleic acid sequence of methionine synthase reductase (MTRR) (abbreviated as “MTRR 66” below).
The efficacy effect is determined by measuring the mean change in the HAMD-17 score and HAMD-28 score by the end of Phase I and Phase II, as compared to the baseline.

[1] = Phase I, interaction of BMI with the treatment
[2] = Phase I, interaction of HNE-his with the treatment
[3] = Phase I, interaction of SAM/SAH with the treatment
[4] = Phase II, 25 =< BMI < 30 kg/m^2 (18, 10)

SMILES: CN1c2c(nc(N)[nH]c2=O)NC[C@@H]1CNc1ccc(C(=O)N[C@@H](CCC(=O)O)C(=O)O)cc1 [6(S)-5-MTHF, 6(S)-5-methyltetrahydrofolate]
- Effect, change in HAMD-17 score (Phase I, MTRR 66 AA and HNE-His < median (8,5)): −1.167
- Effect, change in HAMD-28 score (Phase I, MTRR 66 AA and HNE-His < median = 3.28 (plasma sample)): −4.167
- Effect, change in HAMD-17 score (Phase I, MTRR 66 AA and SAM/SAH >= median (9,6)): −0.125
- Effect, change in HAMD-28 score (Phase I, MTRR 66 AA and SAM/SAH >= median): 0.500
- Effect, change in HAMD-17 score (Phase I, MTRR 66 AG or GG and HNE-His >= median (24,11)): −5.958
- Effect, change in HAMD-28 score (Phase I, MTRR 66 AG or GG and HNE-His >= median): −6.975
- Effect, change in HAMD-17 score (Phase I, MTRR 66 AG or GG and SAM/SAH < median (24,10)): −5.062
- Effect, change in HAMD-28 score (Phase I, MTRR 66 AG or GG and SAM/SAH < median = 2.71 (plasma sample)): −6.498
- Effect, change in HAMD-17 score (Phase I, SAM/SAH < median and HNE-His >= median (19,7)): −3.670
- Effect, change in HAMD-28 score (Phase I, SAM/SAH < median and HNE-His >= median): −4.227
- Effect, change in HAMD-17 score (Phase I, SAM/SAH >= median and HNE-His < median (18,8)): −0.250
- Effect, change in HAMD-28 score (Phase I, SAM/SAH >= median and HNE-His < median): −0.750
- Effect, change in HAMD-17 score: BMI*treat [1]: −0.567
- Effect, change in HAMD-28 score: BMI*treat [1]: −0.668
- Effect, change in HAMD-17 score: HNE-his*treat [2]: −0.465
- Effect, change in HAMD-28 score: HNE-his*treat [2]: −0.133
- Effect, change in HAMD-17 score: SAM/SAH*treat [3]: 0.495
- Effect, change in HAMD-28 score: SAM/SAH*treat (last line) [3]: 0.972
- Effect, change in HAMD-17 score: baseHAMD-17*treat (Phase I, interaction of base HAMD-17 with the treatment): 0.165
- Effect, change in HAMD-28 score: SAM/SAH*treat (first line under HAMD28) (Phase I, interaction with the treatment): 0.495
- Effect, change in HAMD-17 score [4]: 2.000
- Effect, change in HAMD-28 score [4]: 0.000
- Effect, change in HAMD-17 score (Phase II, BMI < 25 (14, 7)): −1.400
- Effect, change in HAMD-28 score (Phase II, BMI < 25 (14, 7)): −2.300
- Effect, change in HAMD-17 score (Phase II, BMI < 30 kg/m^2 and HNE-His < median (19, 9)): 3.667
- Effect, change in HAMD-28 score (Phase II, BMI < 30 kg/m^2 and HNE-His < median): 1.833
- Effect, change in HAMD-17 score (Phase II, BMI < 30 kg/m^2 and SAM/SAH >= median (16,8)): 1.500
- Effect, change in HAMD-28 score (Phase II, BMI < 30 kg/m^2 and SAM/SAH >= median): 2.500
- Effect, change in HAMD-28 score (Phase II, BMI >= 30 kg/m^2 (40,21)): −3.245
- Effect, change in HAMD-17 score (Phase II, BMI >= 30 kg/m^2 and HNE-His >= median (23, 11)): −4.233
- Effect, change in HAMD-28 score (Phase II, BMI >= 30 kg/m^2 and HNE-His >= median): −4.933
- Effect, change in HAMD-17 score (Phase II, BMI >= 30 kg/m^2 and SAM/SAH < median (21,9)): −9.200
- Effect, change in HAMD-28 score (Phase II, BMI >= 30 kg/m^2 and SAM/SAH < median = 2.71 (plasma sample)): −10.350
- Effect, change in HAMD-17 score (Phase II, MTHFR 677 CC and BMI < 30 kg/m^2 (17,8)): −2.267
- Effect, change in HAMD-28 score (Phase II, MTHFR 677 CC and BMI < 30 kg/m^2): −3.000
- Effect, change in HAMD-17 score (Phase II, MTHFR 677 CC and HNE-His < median (20,11)): −0.857
- Effect, change in HAMD-28 score (Phase II, MTHFR 677 CC and HNE-His < median = 3.28 (plasma sample)): −0.536
- Effect, change in HAMD-17 score (Phase II, MTHFR 677 CC and MTR 2756 AA (29,13)): −0.571
- Effect, change in HAMD-28 score (Phase II, MTHFR 677 CC and MTR 2756 AA): 0.048
- Effect, change in HAMD-17 score (Phase II, MTHFR 677 CT or TT and BMI >= 30 kg/m^2 (13,6)): −7.333
- Effect, change in HAMD-28 score (Phase II, MTHFR 677 CT or TT and BMI >= 30 kg/m^2): −8.667
- Effect, change in HAMD-17 score (Phase II, MTHFR 677 CT or TT and HNE-His >= median (11,6)): −7.500
- Effect, change in HAMD-28 score (Phase II, MTHFR 677 CT or TT and HNE-His >= median): −7.500
- Effect, change in HAMD-17 score (Phase II, MTHFR 677 CT or TT and MTR 2756 AG or GG (8,4)): −10.33
- Effect, change in HAMD-28 score (Phase II, MTHFR 677 CT or TT and MTR 2756 AG or GG): −13.00
- Effect, change in HAMD-17 score (Phase II, MTR 2756 AA (45,21)): −0.427
- Effect, change in HAMD-17 score (Phase II, MTR 2756 AA and BMI < 30 kg/m^2 (17,7)): 1.167
- Effect, change in HAMD-28 score (Phase II, MTR 2756 AA and BMI < 30 kg/m^2): 0.917
- Effect, change in HAMD-17 score (Phase II, MTR 2756 AA and HNE-His < median (26,13)): 0.300
- Effect, change in HAMD-28 score (Phase II, MTR 2756 AA and HNE-His < median): −0.125
- Effect, change in HAMD-17 score (Phase II, MTR 2756 AA and MTRR 66 AA (11,5)): −8.000
- Effect, change in HAMD-17 score (Phase II, MTR 2756 AA and MTRR 66 AA and BMI < 30 kg/m^2 (7,4)): −4.333
- Effect, change in HAMD-28 score (Phase II, MTR 2756 AA and MTRR 66 AA and BMI < 30 kg/m^2): −4.667
- Effect, change in HAMD-17 score (Phase II, MTR 2756 AA and MTRR 66 AA and HNE-His < median (6,4)): −8.667
- Effect, change in HAMD-28 score (Phase II, MTR 2756 AA and MTRR 66 AA and HNE-His < median = 3.28 (plasma sample)): −9.000
- Effect, change in HAMD-17 score (Phase II, MTR 2756 AA and MTRR 66 AA and SAM/SAH >= median (6,3)): −7.000
- Effect, change in HAMD-28 score (Phase II, MTR 2756 AA and MTRR 66 AA and SAM/SAH >= median): −7.500
